This passage reports IC50 results from patent publication US20090239841A1, “Diaryl Ureas as CB1 Antagonists” (priority 2004, published 2009).

One may read the IC50 as the concentration at which inhibition is half-maximal.

For one test, the target named is T1, hCB1 (Homo sapiens, UniProt P21554).
T1 construct: made in house; host or cells: Sf9 insect cells (baculovirus), P2 membranes
T1 sequence (P21554 whole entry): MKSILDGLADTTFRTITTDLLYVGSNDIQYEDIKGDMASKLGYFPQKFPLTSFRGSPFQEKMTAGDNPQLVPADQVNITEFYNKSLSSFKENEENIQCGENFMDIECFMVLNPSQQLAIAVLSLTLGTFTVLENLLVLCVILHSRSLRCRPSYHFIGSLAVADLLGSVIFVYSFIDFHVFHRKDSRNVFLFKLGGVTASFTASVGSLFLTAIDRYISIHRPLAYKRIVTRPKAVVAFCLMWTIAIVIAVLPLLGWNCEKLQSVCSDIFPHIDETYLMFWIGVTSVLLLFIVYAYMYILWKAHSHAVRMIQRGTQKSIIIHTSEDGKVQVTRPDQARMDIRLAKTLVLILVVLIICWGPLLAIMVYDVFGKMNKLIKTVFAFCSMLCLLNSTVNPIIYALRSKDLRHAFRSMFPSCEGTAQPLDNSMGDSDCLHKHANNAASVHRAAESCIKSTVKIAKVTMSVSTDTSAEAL
In words: Agonist-induced GTP binding (GTPγ35S) assay at CB1, Example 8. It is filed as biochemical. The note with it: IC50 at CB1, determined as described in Example 8; read-out: IC50. A digest of the protocol: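 Antagonism read as inhibition of 1 nM CP55,940-stimulated GTPγ35S ([…]) binding, compounds at 10^−10 to 10^−5 M. Baculovirus-infected Sf9 membranes bearing hCB1 plus G-protein subunits, 60 min room-temperature incubation with 5 μM GDP. Filtration and scintillation counting; data as percent over basal.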
On to `O=C(Nc1ccc(F)cc1)Nc1ccc2c(c1)CCC2` [Compound 432, 1-(2,3-dihydro-1H-inden-5-yl)-3-(4-fluorophenyl)urea], for which the IC50 was under 2 µM.
With `CC(=O)c1ccc(NC(=O)Nc2cccc(Cl)c2)cc1` [Compound 342, 1-(4-acetylphenyl)-3-(3-chlorophenyl)urea], the concentration for half-maximal inhibition (IC50) is under 2 µM.
For the compound `CCc1ccc(NC(=O)Nc2cccc(C(=O)OC)c2)cc1` [Compound 645, methyl 3-({[(4-ethylphenyl)amino]carbonyl}amino)benzoate], the IC50 was under 2 µM.
Regarding `CCCc1ccc(NC(=O)Nc2ccc(F)c(C)c2)cc1` [Compound 656, 1-(4-fluoro-3-methylphenyl)-3-(4-propylphenyl)urea], the concentration for half-maximal inhibition (IC50) was under 2 µM.
Regarding `N#CCc1ccc(NC(=O)Nc2ccc(Cl)cc2)cc1` [Compound 485, 1-(4-chlorophenyl)-3-[4-(cyanomethyl)phenyl]urea], the IC50 was under 2 µM.
For the compound `CCOC(=O)c1ccc(NC(=O)Nc2cccc(COC)c2)cc1` [Compound 666, ethyl 4-[({[3-(methoxymethyl)phenyl]amino}carbonyl)amino]benzoate], the IC50 is under 2 µM.
For `CCOC(=O)c1cccc(NC(=O)Nc2ccc(C)cc2)c1` [Compound 643, ethyl 3-({[(4-methylphenyl)amino]carbonyl}amino)benzoate], the IC50 is under 2 µM.
`CCOC(=O)c1ccc(NC(=O)Nc2ccc(Cl)nc2)cc1` [Compound 779, ethyl 4-({[(6-chloropyridin-3-yl)amino]carbonyl}amino)benzoate]: the concentration for half-maximal inhibition (IC50) was under 2 µM.
Regarding `CC(C)Oc1ccc(NC(=O)Nc2cccc(Cl)c2)cc1` [Compound 404, 1-(3-chlorophenyl)-3-(4-isopropoxyphenyl)urea], the half-maximal inhibitory concentration (IC50) was under 2 µM.
On the same count and under the same terms, the same measure for `CCOC(=O)c1cccc(NC(=O)Nc2ccc(Cl)c(C)c2)c1` [Compound 771, ethyl 3-({[(4-chloro-3-methylphenyl)amino]carbonyl}amino)benzoate]: under 2 µM; for `N#CCOc1ccc(NC(=O)Nc2ccc(C#N)cc2)cc1` [Compound 506, 1-[4-(cyanomethoxy)phenyl]-3-(4-cyanophenyl)urea]: under 2 µM.
For `CC(=O)c1cccc(NC(=O)Nc2ccc(C)c(Cl)c2)c1` [Compound 458, 1-(3-acetylphenyl)-3-(3-chloro-4-methylphenyl)urea], the half-inhibitory concentration (IC50) is under 2 µM.
Still for that read-out and setting: with `CCOC(=O)c1ccc(NC(=O)Nc2ccc(F)cc2)cc1` [Compound 476, ethyl 4-({[(4-fluorophenyl)amino]carbonyl}amino)benzoate] the figure was under 2 µM; with `CCC(=O)c1ccc(NC(=O)Nc2cc(F)cc(F)c2)cc1` [Compound 744, 1-(3,5-difluorophenyl)-3-(4-propionylphenyl)urea], under 2 µM; with `COCc1ccc(NC(=O)Nc2ccc(C(=O)OC)cc2)cc1` [Compound 668, methyl 4-[({[4-(methoxymethyl)phenyl]amino}carbonyl)amino]benzoate], under 2 µM.
Take `CCOc1ccc(NC(=O)Nc2ccc(S(C)(=O)=O)cc2)cc1` [Compound 596, 1-(4-ethoxyphenyl)-3-[4-(methylsulfonyl)phenyl]urea]: the concentration for half-maximal inhibition (IC50) is under 2 µM.
For `Cc1cccc(NC(=O)Nc2ccc(CC#N)cc2)c1` [Compound 459, 1-[4-(cyanomethyl)phenyl]-3-(3-methylphenyl)urea], the IC50 is under 2 µM.
On the same count and under the same terms, with `CCOC(=O)c1ccc(NC(=O)Nc2cccc(C(=O)OCC)c2)cc1` [Compound 722, ethyl 3-[({[4-(ethoxycarbonyl)phenyl]amino}carbonyl)amino] benzoate] the figure was under 2 µM; with `CCCOc1ccc(NC(=O)Nc2cccc(F)c2)cc1` [Compound 361, 1-(3-fluorophenyl)-3-(4-propoxyphenyl)urea], under 2 µM.
For `CCc1ccc(NC(=O)Nc2cc(C)ccn2)cc1` [Compound 640, 1-(4-ethylphenyl)-3-(4-methylpyridin-2-yl)urea], the 50% inhibitory concentration (IC50) was under 2 µM.
In the case of `CC(C)Oc1ccc(NC(=O)Nc2ccc(C(C)C)cc2)cc1` [Compound 575, 1-(4-isopropoxyphenyl)-3-(4-isopropylphenyl)urea], the IC50 is under 2 µM.
As for `CCCc1ccc(NC(=O)Nc2cccc(F)c2)cc1` [Compound 327, 1-(3-fluorophenyl)-3-(4-propylphenyl)urea], the half-inhibitory concentration (IC50) was under 2 µM.

The same test, now with this note: Table I; IC50 at CB1, GTP binding with 1 nM CP55,940; read-out: IC50.
Take `CCc1ccc(NC(=O)Nc2ccc(CC)cc2)cc1` [Compound 21, N,N′-bis(4-ethylphenyl)urea]: the IC50 is under 2 µM.
For `Cc1ccc(NC(=O)Nc2ccc(Cl)cc2)cc1` [Compound 43, N-(4-chlorophenyl)-N′-(4-methylphenyl)urea], the concentration for half-maximal inhibition (IC50) was under 2 µM.
Turning to `CCc1ccc(NC(=O)Nc2ccccc2)cc1` [Compound 35, N-(4-ethylphenyl)-N′-phenylurea], the IC50 is under 2 µM.
On to `CCCOc1ccc(NC(=O)Nc2ccc(CC)cc2)cc1` [Compound 24, N-(4-ethylphenyl)-N′-(4-propoxyphenyl)urea], for which the half-inhibitory concentration (IC50) is under 2 µM.
For the compound `CCc1cccc(NC(=O)Nc2ccc(OC(F)F)cc2)c1` [Compound 11, N-[4-(difluoromethoxy)phenyl]-N′-(3-ethylphenyl)urea], the concentration for half-maximal inhibition (IC50) is under 2 µM.

The test is the same for the next values; noted with them: Table II; IC50 at CB1, GTP binding with 1 nM CP55,940; read-out: IC50.
In the case of `CCc1ccc(NC(=O)Nc2cccc(COC)c2)cc1` [Compound 238, N-(4-ethylphenyl)-N′-[3-(methoxymethyl)phenyl]urea], the IC50 was under 2 µM.
With `O=C(Nc1ccc(OC(F)F)cc1)Nc1ccc(S(=O)(=O)N2CCCC2)cc1` [Compound 111, N-[4-(difluoromethoxy)phenyl]-N′-[4-(pyrrolidin-1-ylsulfonyl)phenyl]urea], the IC50 was under 2 µM.
As to `O=C(Nc1ccc(Cl)cc1)Nc1cccc(OC(F)F)c1` [Compound 256, N-(4-chlorophenyl)-N′-[3-(difluoromethoxy)phenyl]urea], the 50% inhibitory concentration (IC50) was under 2 µM.
On to `COC(=O)c1ccc(NC(=O)Nc2ccc(OC(F)F)cc2)cc1OC` [Compound 134, methyl 4-[({[4-(difluoromethoxy)phenyl]amino}carbonyl)amino]-2-methoxybenzoate], for which the 50% inhibitory concentration (IC50) was under 2 µM.
Regarding `Cc1cccc(NC(=O)Nc2ccc(N3CCOCC3)c(Cl)c2)c1` [Compound 162, N-(3-chloro-4-morpholin-4-ylphenyl)-N′-(3-methylphenyl)urea], the half-inhibitory concentration (IC50) was under 2 µM.
Regarding `CCCOc1ccc(NC(=O)Nc2cccc(C(C)=O)c2)cc1` [Compound 274, N-(3-acetylphenyl)-N′-(4-propoxyphenyl)urea], the IC50 was under 2 µM.
On to `CCc1ccc(NC(=O)Nc2ccc(C(C)C)cc2)cc1` [Compound 181, N-(4-ethylphenyl)-N′-(4-isopropylphenyl)urea], for which the IC50 was under 2 µM.
For the compound `CCOc1cccc(NC(=O)Nc2ccc(C#N)cc2)c1` [Compound 261, N-(4-cyanophenyl)-N′-(3-ethoxyphenyl)urea], the half-inhibitory concentration (IC50) is under 2 µM.
For `Cc1ccc(NC(=O)Nc2ccc(OC(C)C)cc2)cc1` [Compound 214, N-(4-isopropoxyphenyl)-N′-(4-methylphenyl)urea], the IC50 was under 2 µM.
Turning to `CCOc1ccc(NC(=O)Nc2ccc(C(C)=O)cc2)cc1` [Compound 267, N-(4-acetylphenyl)-N′-(4-ethoxyphenyl)urea], the IC50 was under 2 µM.
On the same count and under the same terms, the same measure for `Cc1cccc(NC(=O)Nc2ccc(N3CCCCC3)cc2)c1` [Compound 168, N-(3-methylphenyl)-N′-(4-piperidin-1-ylphenyl)urea]: under 2 µM.
